Laboratory results taken from patent US20030166651A1, “Novel 3-substituted 1,2,4-benzotriazines, a method for their production and the use thereof” (priority 1999, published 2003).
Converted amounts (≈) assume the structure as drawn.

Assays:
Assay type in all cases: cell-based
Hep2 = experiment: Inhibition of cell growth, Hep2 cells; details: three days at 37° C., microscope assessment; for IC50: Homo sapiens, HEp-2, 72 h, read-out: IC50 value (50% inhibition of cell growth)
Method: (§1) Aqueous sterile solutions of each substance to be tested are injected into 1 ml of the respective cell stock solution at concentration steps of 2-50 μg each time. Subsequently, the test chambers are developed together with a non-treated reference chamber for three days at 37° C. Assessment is performed using a microscope. Cell growth or cell decomposition (condition of cell membrane and cell nucleus) is compared to non-treated reference cells.

HeLa = experiment: Inhibition of cell growth, HeLa cells; details: three days at 37° C., microscope assessment; for IC50: Homo sapiens, 72 h, read-out: IC50 value (50% inhibition of cell growth)
Method: as §1

Peritoneal carcinoma = experiment: Inhibition of cell growth, peritoneal carcinoma cells; details: 72 h, three days at 37° C., microscope assessment, read-out: IC50 value (50% inhibition of cell growth)
Method: as §1

Pleural carcinoma = experiment: Inhibition of cell growth, pleural carcinoma cells; details: 72 h, three days at 37° C., microscope assessment, read-out: IC50 value (50% inhibition of cell growth)
Method: as §1

[1] = system: permanent cell cultures such as HeLa, Hep2 cells, of peritoneal carcinoma and pleural carcinoma cells; experiment: Inhibition of cell growth, overall statement on the tumor cell cultures
Method: as §1

Compound | IC50 (Hep2) | IC50 (HeLa) | IC50 (Peritoneal carcinoma) | IC50 (Pleural carcinoma) | IC50 value (50% inhibition of cell growth) (HeLa) | inhibition of cell growth / antitumor activity, result in words [1] | IC50 value (50% inhibition of cell growth) (Hep2)
COC(=O)Cc1nnc2ccc(Cl)cc2n1 [Compound b, 3-(methoxycarbonylmethyl)-6-chlorobenzo-1,2,4-triazine] | 120 µg/mL (≈ 505 µM) | 160 µg/mL (≈ 673 µM) | 150 µg/mL (≈ 631 µM) | 500 µg/mL (≈ 2100 µM) |  |  | 
3-(D-galacto-tetritol-1-yl)-1,2,4-benzotriazine [Compound i] |  |  |  |  | 400 µg/mL |  | 
OC[C@@H](O)[C@@H](O)[C@H](O)c1nnc2ccc(Cl)cc2n1 [Compound k, 3-(D-arabino-tetritol-1-yl)-6-chlorobenzo-1,2,4-triazine] |  |  |  |  | 250 µg/mL |  | 
CC(C)NC(=O)Cc1nnc2ccccc2n1 [Compound l, 3-(isopropylaminocarbonylmethyl)-1,2,4-benzotriazine] |  |  |  |  |  | preferred activity | 
COC(=O)Cc1nnc2cccc(Cl)c2n1 [Compound c, 3-(methoxycarbonylmethyl)-5-chlorobenzo-1,2,4-triazine] | 16 µg/mL (≈ 67.3 µM) | 8 to 16 µg/mL (≈ 33.7 to 67.3 µM) | 12 µg/mL (≈ 50.5 µM) |  |  | preferred activity | 
COC(=O)Cc1nnc2ccc(Cl)c(N)c2n1 [Compound d, 3-(methoxycarbonylmethyl)-5-amino-6-chlorobenzo-1,2,4-triazine] | 500 µg/mL (≈ 1980 µM) | 50 µg/mL (≈ 198 µM) | 25 to 30 µg/mL (≈ 98.9 to 119 µM) | 500 µg/mL (≈ 1980 µM) |  |  | 
OC[C@@H](O)[C@@H](O)[C@H](O)c1nnc2ccccc2n1 [Compound h, 3-(D-arabino-tetritol-1-yl)-1,2,4-benzotriazine] |  |  |  |  | 150 µg/mL |  | 150 µg/mL
CCOC(=O)Cc1nnc2ccc(Br)cc2n1 [Compound g, 3-(ethoxycarbonylmethyl)-6-bromobenzo-1,2,4-triazine] | 8 to 16 µg/mL (≈ 27 to 54 µM) | 8 to 16 µg/mL (≈ 27 to 54 µM) | 35 µg/mL (≈ 118 µM) |  |  | preferred activity | 
